Source: patent US9573947B2, “Salt of pyrazoloquinoline derivative, and crystal thereof” (Eisai R&D Management Co., Ltd., priority 2013, dated 2017)

How the values were obtained:
[1] = Dissolution test in fasted state simulated intestinal fluid; type: physicochemical; conditions: for CONCENTRATION (dissolution): fasted state simulated intestinal fluid pH 6.5, 37° C., 50 rpm, in terms of compound (I); for concentration achieved relative to the concentration of compound (I): dissolution test, fasted state simulated intestinal fluid
Method: Each of compound (I) (50 mg), the compound of Example 1 (30 mg) and the compound of Example 2 (30 mg) was filled into a hydroxypropyl methylcellulose capsule, together with an equal weight of lactose hydrate. A 708-DS from Agilent Technologies was equipped with small stirring paddles and small vessels, and used as a dissolution test apparatus. Each drug-filled capsule was added to 50 ml of fasted state simulated intestinal fluid (a phosphate buffer pH 6.5 containing 0.75 mM lecithin and 3 mM sodium taurocholate) which had been warmed to 37° C. The drug was dissolved by rotating the stirring paddle at a speed of 50 rpm. The dissolved solution was sampled over time and the drug concentrations were measured by HPLC. Such dissolution tests using fasted state simulated intestinal fluid are often used to evaluate the dissolution and absorption characteristics of drugs (e.g., Takano et al., “Oral absorption of poorly water-soluble drugs: computer simulation of fraction absorbed in humans from a miniscale dissolution test”, Pharm Res., vol. 23, pp. 1144-1156, 2006). The results were shown in Table 1 and the graph in FIG. 12.

[2] = Test on oral absorption characteristics in dogs; type: in vivo, beagle dogs; conditions: for AREA UNDER PLASMA CONCENTRATION-TIME CURVE, MEAN: mean of 4 beagle dogs; for PLASMA CONCENTRATION MEAN: mean of dogs

In the case of COc1ncc(C)c(-c2ccc3c(c2)[nH]c(=O)c2cnn([C@H]4CCOC4)c23)c1C.O=C(O)/C=C\C(=O)O [Example 1, (S)-7-(2-methoxy-3,5-dimethylpyridin-4-yl)-1-(tetrahydrofuran-3-yl)-1H-pyrazolo[4,3-c]quinolin-4(5H)-one Monomaleate Salt], the “CONCENTRATION (dissolution)” value ([1]; 6 minutes) is reported as 6400 ng/mL, the “CONCENTRATION (dissolution)” value ([1]; 10 minutes) is reported as 11800 ng/mL and the “CONCENTRATION (dissolution)” value ([1]; 15 minutes) is reported as 20800 ng/mL. The “CONCENTRATION (dissolution)” value ([1]; 20 minutes) was 23300 ng/mL, the “CONCENTRATION (dissolution)” value ([1]; 30 minutes) was 27900 ng/mL and the “CONCENTRATION (dissolution)” value ([1]; 60 minutes) was 25000 ng/mL. For the same molecule, the “CONCENTRATION (dissolution)” value ([1]; 90 minutes) was 23900 ng/mL, the “CONCENTRATION (dissolution)” value ([1]; 120 minutes) was 22100 ng/mL and the “CONCENTRATION (dissolution)” value ([1]; 180 minutes) was 18800 ng/mL. For the same molecule, the “CONCENTRATION (dissolution)” value ([1]; 240 minutes) was 18800 ng/mL, the “concentration achieved relative to the concentration of compound (I)” value [1] was 4- to 5 fold and the “PLASMA CONCENTRATION” value ([2]; Dog 1, 0.25 hours, oral capsule, 100 mg in terms of the free form) was “BQL”. For the same molecule, the “PLASMA CONCENTRATION” value ([2]; Dog 1, 0.5 hours, oral capsule, 100 mg in terms of the free form) was 428 ng/mL, the “PLASMA CONCENTRATION” value ([2]; Dog 1, 1 hour, oral capsule, 100 mg in terms of the free form) was 506 ng/mL and the “PLASMA CONCENTRATION” value ([2]; Dog 1, 2 hours, oral capsule, 100 mg in terms of the free form) was 343 ng/mL. The “PLASMA CONCENTRATION” value ([2]; Dog 1, 4 hours, oral capsule, 100 mg in terms of the free form) was 219 ng/mL, the “PLASMA CONCENTRATION” value ([2]; Dog 1, 6 hours, oral capsule, 100 mg in terms of the free form) was 158 ng/mL and the “PLASMA CONCENTRATION” value ([2]; Dog 1, 8 hours, oral capsule, 100 mg in terms of the free form) was 134 ng/mL. The “PLASMA CONCENTRATION” value ([2]; Dog 1, 24 hours, oral capsule, 100 mg in terms of the free form) was 102 ng/mL, the “AREA UNDER PLASMA CONCENTRATION-TIME CURVE” value ([2]; Dog 1, oral capsule, 100 mg in terms of the free form) was 3830 ng·h/mL and the “PLASMA CONCENTRATION” value ([2]; Dog 2, 0.25 hours, oral capsule, 100 mg in terms of the free form) was “BQL”. The “PLASMA CONCENTRATION” value ([2]; Dog 2, 0.5 hours, oral capsule, 100 mg in terms of the free form) was 140 ng/mL, the “PLASMA CONCENTRATION” value ([2]; Dog 2, 1 hour, oral capsule, 100 mg in terms of the free form) was 457 ng/mL and the “PLASMA CONCENTRATION” value ([2]; Dog 2, 2 hours, oral capsule, 100 mg in terms of the free form) was 469 ng/mL. For the same molecule, the “PLASMA CONCENTRATION” value ([2]; Dog 2, 4 hours, oral capsule, 100 mg in terms of the free form) was 313 ng/mL, the “PLASMA CONCENTRATION” value ([2]; Dog 2, 6 hours, oral capsule, 100 mg in terms of the free form) was 224 ng/mL and the “PLASMA CONCENTRATION” value ([2]; Dog 2, 8 hours, oral capsule, 100 mg in terms of the free form) was 199 ng/mL. The “PLASMA CONCENTRATION” value ([2]; Dog 2, 24 hours, oral capsule, 100 mg in terms of the free form) was 23 ng/mL, the “AREA UNDER PLASMA CONCENTRATION-TIME CURVE” value ([2]; Dog 2, oral capsule, 100 mg in terms of the free form) was 4160 ng·h/mL and the “PLASMA CONCENTRATION” value ([2]; Dog 3, 0.5 hours, oral capsule, 100 mg in terms of the free form) was 377 ng/mL. For the same molecule, the “PLASMA CONCENTRATION” value ([2]; Dog 3, 1 hour, oral capsule, 100 mg in terms of the free form) was 422 ng/mL, the “PLASMA CONCENTRATION” value ([2]; Dog 3, 2 hours, oral capsule, 100 mg in terms of the free form) was 337 ng/mL and the “PLASMA CONCENTRATION” value ([2]; Dog 3, 4 hours, oral capsule, 100 mg in terms of the free form) was 272 ng/mL. The “PLASMA CONCENTRATION” value ([2]; Dog 3, 6 hours, oral capsule, 100 mg in terms of the free form) was 217 ng/mL, the “PLASMA CONCENTRATION” value ([2]; Dog 3, 8 hours, oral capsule, 100 mg in terms of the free form) was 147 ng/mL and the “PLASMA CONCENTRATION” value ([2]; Dog 3, 24 hours, oral capsule, 100 mg in terms of the free form) was 20 ng/mL. For the same molecule, the “AREA UNDER PLASMA CONCENTRATION-TIME CURVE” value ([2]; Dog 3, oral capsule, 100 mg in terms of the free form) was 3490 ng·h/mL, the “PLASMA CONCENTRATION” value ([2]; Dog 4, 0.25 hours, oral capsule, 100 mg in terms of the free form) was “BQL” and the “PLASMA CONCENTRATION” value ([2]; Dog 4, 1 hour, oral capsule, 100 mg in terms of the free form) was 422 ng/mL. The “PLASMA CONCENTRATION” value ([2]; Dog 4, 2 hours, oral capsule, 100 mg in terms of the free form) was 401 ng/mL, the “PLASMA CONCENTRATION” value ([2]; Dog 4, 4 hours, oral capsule, 100 mg in terms of the free form) was 322 ng/mL and the “PLASMA CONCENTRATION” value ([2]; Dog 4, 6 hours, oral capsule, 100 mg in terms of the free form) was 248 ng/mL. The “PLASMA CONCENTRATION” value ([2]; Dog 4, 8 hours, oral capsule, 100 mg in terms of the free form) was 210 ng/mL, the “PLASMA CONCENTRATION” value ([2]; Dog 4, 24 hours, oral capsule, 100 mg in terms of the free form) was 74 ng/mL and the “AREA UNDER PLASMA CONCENTRATION-TIME CURVE” value ([2]; Dog 4, oral capsule, 100 mg in terms of the free form) was 4540 ng·h/mL. For the same molecule, the concentration at 0.25 h ([2]; beagle, dog, plasma, po, 100 mg, Dog 3, 0.25 hours, oral capsule, 100 mg in terms of the free form) was 279 ng/mL, the concentration at 0.5 h ([2]; beagle, dog, plasma, po, 100 mg, Dog 4, 0.5 hours, oral capsule, 100 mg in terms of the free form) was 6 ng/mL and the “AREA UNDER PLASMA CONCENTRATION-TIME CURVE, MEAN” value ([2]; oral capsule, 100 mg in terms of the free form, Monomaleate Salt) was 4000 ± 450 ng·h/mL. The “AREA UNDER PLASMA CONCENTRATION-TIME CURVE, MEAN” value ([2]; oral capsule, 100 mg in terms of the free form, listed as EXAMPLE 1, Monomaleate Salt) was 4000 ng·h/mL, the “PLASMA CONCENTRATION MEAN” value ([2]; 0.5 hours, oral capsule, 100 mg in terms of the free form) was 315 ng/mL and the “PLASMA CONCENTRATION MEAN” value ([2]; 1 hour, oral capsule, 100 mg in terms of the free form) was 452 ng/mL. The “PLASMA CONCENTRATION MEAN” value ([2]; 2 hours, oral capsule, 100 mg in terms of the free form) was 388 ng/mL, the “PLASMA CONCENTRATION MEAN” value ([2]; 4 hours, oral capsule, 100 mg in terms of the free form) was 282 ng/mL and the “PLASMA CONCENTRATION MEAN” value ([2]; 6 hours, oral capsule, 100 mg in terms of the free form) was 212 ng/mL. The “PLASMA CONCENTRATION MEAN” value ([2]; 8 hours, oral capsule, 100 mg in terms of the free form) was 172 ng/mL, the “PLASMA CONCENTRATION MEAN” value ([2]; 24 hours, oral capsule, 100 mg in terms of the free form) was 55 ng/mL and the “absorption rate compared with compound (I)” value ([2]; oral capsule to beagle dogs, crossover) was “higher”.
In the case of COc1ncc(C)c(-c2ccc3c(c2)[nH]c(=O)c2cnn([C@H]4CCOC4)c23)c1C.O=S(=O)(O)c1ccccc1 [Example 2, (S)-7-(2-methoxy-3,5-dimethylpyridin-4-yl)-1-(tetrahydrofuran-3-yl)-1H-pyrazolo[4,3-c]quinolin-4(5H)-one Monobenzenesulfonate Salt], the “CONCENTRATION (dissolution)” value ([1]; 6 minutes) is reported as 0 ng/mL, the “CONCENTRATION (dissolution)” value ([1]; 10 minutes) is reported as 500 ng/mL and the “CONCENTRATION (dissolution)” value ([1]; 15 minutes) is reported as 7300 ng/mL. For the same molecule, the “CONCENTRATION (dissolution)” value ([1]; 20 minutes) was 9300 ng/mL, the “CONCENTRATION (dissolution)” value ([1]; 30 minutes) was 10200 ng/mL and the “CONCENTRATION (dissolution)” value ([1]; 60 minutes) was 10700 ng/mL. The “CONCENTRATION (dissolution)” value ([1]; 90 minutes) was 10600 ng/mL, the “CONCENTRATION (dissolution)” value ([1]; 120 minutes) was 10700 ng/mL and the “CONCENTRATION (dissolution)” value ([1]; 180 minutes) was 9400 ng/mL. The “CONCENTRATION (dissolution)” value ([1]; 240 minutes) was 9000 ng/mL and the “concentration achieved relative to the concentration of compound (I)” value [1] was “about 2 fold”.
